The test system of series [1] is cotton event pDAB4468.19.10.3. As to the kind of experiment: Tolerance to 2,4-D in field trials (percent visual injury). The class given is in vivo, Gossypium hirsutum. As to conditions: for Percent visual injury: single post-emergence application, 2-4 leaf. The method, then:
The tolerance of cotton event pDAB4468.19.10.3 to post-emergence applications of the phenoxyacetic acid herbicide, 2,4-D, was studied in field trials during the 2010 growing season. Herbicide tolerance was assessed following a single post-emergence application of 2,4-D applied to 2-4 leaf cotton event pDAB4468.19.10.3. The application of 2,4-D on cotton plants at this stage of development represents a herbicide application timing typically utilized to achieve satisfactory weed control by cotton growers.
2,4-D tolerance was measured by assessing cotton plants for injury at 0-1 day after application (DAA), 7-8 DAA, 12-16 DAA, and 24-32 DAA. Measurements for the 0-1 day time increment were taken from 6-24 hours after the application. Injury was assessed by assigning a percent visual injury rating using a linear percentage scale (1-100%) where 0% represents no visible herbicide injury and 100% represents plant death. The ratings were a composite score for any herbicide symptomology including epinasty, chlorosis, leaf necrosis and plant death. Herbicide symptomology present at 0-1 DAA was primarily epinasty and symptoms at later evaluations were primarily chlorosis and necrosis.
(§1) Field trials were conducted at eleven locations across the United States in typical cotton producing areas of Alabama, Arkansas, California, Georgia, Louisiana, Mississippi, North Carolina, South Carolina, and Tennessee. Trials were designed with four replications per treatment. Each replication was separated by a bare-soil alley 10-15 feet wide. Plot size for individual treatments was 2 rows by 20 feet long with rows typically spaced 36-40 inches apart. Experimental treatments consisted of cotton event pDAB4468.19.10.3 sprayed with 2,4-D amine (Weedar 64™, NuFarm, Burr Ridge, Ill.) at either 0, 1120, 2240, or 4480 grams acid equivalent per hectare (g ae/ha) applied in 15 gallons per acre of final spray solution. A non-transformed cotton comparator treatment was not included in these experiments since treatment with 2,4-D at rates much lower than the lowest rate tested (1120 g ae/ha) are known to result in plant death.

Series [2] has as its system cotton event pDAB4468.19.10.3. As to the kind of experiment: Agronomic characterization in field trials with and without herbicide applications. It is filed as in vivo, Gossypium hirsutum. As to conditions: sprayed vs unsprayed event plants; standard field application rates. The source says:
The agronomic characteristics of cotton event pDAB4468.19.10.3 were quantified in field trials conducted across geographically different locations throughout the cotton belt in 2010. These studies compared the agronomic performance of cotton event pDAB4468.19.10.3 (with and without applications of the herbicides 2,4-D and glufosinate) to the non-transgenic near-isoline control, Coker 310. No agronomically meaningful unintended differences were observed between cotton event pDAB4468.19.10.3 and the Coker 310 control plants. […] Additionally, the agronomic performance of cotton event pDAB4468.19.10.3 was not altered as a result of the application of the herbicides, 2,4-D and glufosinate, as compared to the cotton event pDAB4468.19.10.3 plants which were not sprayed with the herbicide treatments. […]
Seeds of cotton event pDAB4468.19.10.3 and seeds of the near-isoline control line, Coker 310, were planted at a rate of 80 seeds per 20 ft row with a row spacing of 34-38 inches (86.36 cm-96.52 cm). […] The measured agronomic characteristics were equivalent for cotton event pDAB4468.19.10.3 as compared to the Coker 310 near-isoline control plants for all of the agronomic characteristics measured and statistically analyzed. […]

In another series the test system is non-transformed cotton. As to conditions: rates much lower than the lowest rate tested (1120 g ae/ha); known; cited from earlier work.
For series [3], the system named is cotton event pDAB4468.19.10.3. Nature of the series: Tolerance to glufosinate in field trials (percent visual injury). The class given is in vivo, Gossypium hirsutum. As to conditions: for Percent visual injury: single post-emergence application, 6-8 leaf. The method, then: The tolerance of cotton event pDAB4468.19.10.3 to post-emergence applications of glufosinate was studied in field trials during the 2010 growing season. Herbicide tolerance was assessed following a single post-emergence application of glufosinate applied to 6-8 leaf cotton event pDAB4468.19.10.3, which represents a herbicide application timing typically utilized with glufosinate to achieve satisfactory weed control.
Glufosinate tolerance was measured by assessing cotton plants for injury at 2-4 days after application (DAA), 7-9 DAA, 13-19 DAA and 22-29 DAA. Injury was assessed by assigning a percent visual injury rating using a linear percentage scale (1-100) where 0% represents no visible herbicide injury and 100% represents plant death. The ratings were a composite score for any herbicide symptomology including chlorosis, leaf necrosis, stunting and plant death. Herbicide symptomology (where present) was primarily chlorosis and necrosis.
as §1, with “glufosinate ammonium (Ignite 280 SL™, Bayer, Research Triangle, N.C.)” for “2,4-D amine (Weedar 64™, NuFarm, Burr Ridge, Ill.)”, “542, 1084,” for “1120, 2240,”, “2168” for “4480”, “glufosinate” for “2,4-D”, “(542” for “(1120”, “would be expected” for “are known”

In the case of `O=C(O)COc1ccc(Cl)cc1Cl` [2,4-D], in series [1] (1120-4480 g ae/ha, with the exception of transient epinasty 0-1 DAA), the “herbicide injury noted in the field experiments” value is reported as “no agronomically-significant herbicide injury”. For the same molecule, the Percent visual injury in series [1] (1120 g ae/ha, 0-1 DAA) came out at 3.6%; in series [1] (1120 g ae/ha, 7-8 DAA), 1.4%; in series [1] (1120 g ae/ha, 12-16 DAA), 0.6%; in series [1] (1120 g ae/ha, 24-32 DAA) it was 0.0%; in series [1] (2240 g ae/ha, 0-1 DAA), 11.8%; in series [1] (2240 g ae/ha, 7-8 DAA) it was 3.5%. In addition, the Percent visual injury turned out to be 2.7% in series [1] (2240 g ae/ha, 12-16 DAA); 0.1% in series [1] (2240 g ae/ha, 24-32 DAA); 19.4% in series [1] (4480 g ae/ha, 0-1 DAA); 11.0% in series [1] (4480 g ae/ha, 7-8 DAA); 5.9% in series [1] (4480 g ae/ha, 12-16 DAA); 0.6% in series [1] (4480 g ae/ha, 24-32 DAA). In series [1] (4480 g ae/ha (>4x rate required for weed control)), the “crop injury beyond the 7-8 DAA evaluation interval” value was “little crop injury”. In series [2], the “agronomic performance of the event as a result of herbicide application” value is on record as “not altered”. In addition, the “result of treatment of non-transformed cotton” value in the series on non-transformed cotton was “plant death”.

With `CP(=O)(O)CCC(N)C(=O)O` (stereo not shown) [glufosinate], the “herbicide injury noted in the field experiments” value in series [3] (542-2168 g ae/ha, with the exception of transient chlorosis at 2168 g ae/ha at 2-4 & 7-9 DAA) was “no agronomically significant herbicide injury”. Besides, the Percent visual injury in series [3] (542 g ae/ha, 2-4 DAA) came out at 2.7%; in series [3] (542 g ae/ha, 7-9 DAA) it was 1.9%; in series [3] (542 g ae/ha, 13-19 DAA), 0.1%; in series [3] (542 g ae/ha, 22-29 DAA), 0.0%; in series [3] (1084 g ae/ha, 2-4 DAA), 6.6%; in series [3] (1084 g ae/ha, 7-9 DAA), 4.0%. Also, the Percent visual injury turned out to be 0.2% in series [3] (1084 g ae/ha, 13-19 DAA); 0.0% in series [3] (1084 g ae/ha, 22-29 DAA); 13.5% in series [3] (2168 g ae/ha, 2-4 DAA); 10.0% in series [3] (2168 g ae/ha, 7-9 DAA); 2.3% in series [3] (2168 g ae/ha, 13-19 DAA); 0.3% in series [3] (2168 g ae/ha, 22-29 DAA). The “crop injury beyond the 7-9 DAA evaluation interval” value in series [3] (2168 g ae/ha (>4x rate required for weed control)) is listed as “little crop injury”. Moreover, the “agronomic performance of the event as a result of herbicide application” value in series [2] is “not altered”.

Values taken from patent US10501752B2, “Herbicide tolerant cotton event pDAB4468.19.10.3” (Dow AgroSciences LLC, priority 2012, dated 2019).
